Source: article PMC10453766, “Comparison of the Effects of DOTA and NOTA Chelators on ^64Cu-Cudotadipep and ^64Cu-Cunotadipep for Prostate Cancer” (Diagnostics, 2023)

Assays:
[1] = Biodistribution in normal BALB/c mice; type: in vivo, mouse; settings: tail vein
Description: (§1) Approximately 0.93 MBq ^64Cu-cudotadipep or ^64Cu-cunotadipep was injected via the tail vein into normal BALB/c mice or PC3-PIP tumor-bearing nude mice (n = 5/group). Normal and tumor-bearing mice were euthanized at 2, 6, 24, and 48 h following injection. Tumor and normal tissues were excised and weighed, and their radioactivity was measured using a gamma counter (2480 WIZARD2 gamma counter, Perkin Elmer, Waltham, MA, USA). The radioactivity measured in each tissue was expressed as a percentage of the injected dose per gram of tissue (%ID/g).

[2] = Radiation-absorbed dose calculation (OLINDA/EXM) from normal mouse biodistribution; design: species or system human
Description: The biodistribution results of normal BALB/c mice were used to evaluate the human radiation-absorbed dose. The internal absorbed doses of ^64Cu-cudotadipep and ^64Cu-cunotadipep were evaluated using the residence time and total amount of radioactivity in the target organ of the mice. The internal absorbed dose of the mice was converted to the human dose based on the Medical Internal Radiation Dose schema, using OLINDA/EXM version 1.1 software.

PC3-PIP (PSMA+) cells = experiment: Cell uptake in PC3-PIP cells; type: cell-based, human; settings: PC3-PIP cells, 1 × 10^6 cells, 3.7 MBq, 2 h, 37 °C
Description: (§2) PC3-PIP or PC3-flu cells (1 × 10^6) were mixed with 3.7 MBq (100 μCi) of ^64Cu-cudotadipep or ^64Cu-cunotadipep and incubated at 37 °C and 5% CO2 for 2 h. Following incubation, the cells were washed with PBS twice and collected via centrifugation (2000 rpm, 5 min). Radioactivity was measured using 2480 WIZARD2 gamma counter (Perkin Elmer, Waltham, MA, USA). Percent (%) uptake was calculated using the ratio between the radioactivity of the cells and treated radioactivity.

PC3-flu (PSMA−) cells = experiment: Cell uptake in PC3-flu cells; type: cell-based, human; settings: 1 × 10^6 cells, 3.7 MBq, 2 h, 37 °C
Description: as §2

PC3-PIP tumor xenograft = experiment: Biodistribution in PC3-PIP tumor-bearing nude mice; type: in vivo, mouse; settings: tail vein
Description: All animal experiments followed the procedures approved by the Institutional Animal Care and Use Committee of Korea Institute of Radiological & Medical Sciences (approval No. KIRAMS2021-0044). Male BALB/c mice and athymic nude (Nu/Nu) BALB/c mice (weighing 20–25 g, 8 weeks old) were purchased from Nara Biotech (Seoul, Republic of Korea). PC3-PIP cells (1 × 10^7) were dispensed in 100 μL PBS, mixed with Matrigel, and subcutaneously implanted in the right thigh of male athymic nude (Nu/Nu) BALB/c mice. When the tumor reached 0.5–0.9 cm in diameter (2–3 weeks following implantation), biodistribution studies and PET imaging were performed.
as §1

- Biodistribution, Blood ([1]; 2 h): 4.27 ± 0.64 %ID/g
- Biodistribution, Bone ([1]; 2 h): 1.09 ± 0.32 %ID/g
- Biodistribution, Brain ([1]; 2 h): 0.26 ± 0.07 %ID/g
- Biodistribution, Fat ([1]; 2 h): 1.26 ± 0.28 %ID/g
- Biodistribution, Heart ([1]; 2 h): 3.02 ± 0.52 %ID/g
- Biodistribution, Intestine ([1]; 2 h): 4.22 ± 0.57 %ID/g
- Biodistribution, Kidney ([1]; 2 h): 45.74 ± 12.68 %ID/g
- Biodistribution, Liver ([1]; 2 h): 16.12 ± 4.51 %ID/g
- Biodistribution, Lung ([1]; 2 h): 5.16 ± 1.26 %ID/g
- Biodistribution, Muscle ([1]; 2 h): 1.01 ± 0.15 %ID/g
- Biodistribution, Spleen ([1]; 2 h): 6.80 ± 2.46 %ID/g
- Biodistribution, Stomach ([1]; 2 h): 2.30 ± 0.60 %ID/g
- Biodistribution, Blood ([1]; 6 h): 2.04 ± 0.71 %ID/g
- Biodistribution, Bone ([1]; 6 h): 1.10 ± 0.40 %ID/g
- Biodistribution, Brain ([1]; 6 h): 0.25 ± 0.10 %ID/g
- Biodistribution, Fat ([1]; 6 h): 0.72 ± 0.13 %ID/g
- Biodistribution, Heart ([1]; 6 h): 2.67 ± 0.53 %ID/g
- Biodistribution, Intestine ([1]; 6 h): 5.85 ± 2.69 %ID/g
- Biodistribution, Kidney ([1]; 6 h): 56.43 ± 5.37 %ID/g
- Biodistribution, Liver ([1]; 6 h): 19.13 ± 5.32 %ID/g
- Biodistribution, Lung ([1]; 6 h): 5.77 ± 1.12 %ID/g
- Biodistribution, Muscle ([1]; 6 h): 0.74 ± 0.18 %ID/g
- Biodistribution, Spleen ([1]; 6 h): 7.09 ± 0.68 %ID/g
- Biodistribution, Stomach ([1]; 6 h): 2.26 ± 1.59 %ID/g
- Biodistribution, Blood ([1]; 24 h): 2.01 ± 0.92 %ID/g
- Biodistribution, Bone ([1]; 24 h): 0.94 ± 0.41 %ID/g
- Biodistribution, Brain ([1]; 24 h): 0.37 ± 0.08 %ID/g
- Biodistribution, Fat ([1]; 24 h): 0.70 ± 0.33 %ID/g
- Biodistribution, Heart ([1]; 24 h): 2.91 ± 0.66 %ID/g
- Biodistribution, Intestine ([1]; 24 h): 3.64 ± 0.83 %ID/g
- Biodistribution, Kidney ([1]; 24 h): 41.77 ± 12.09 %ID/g
- Biodistribution, Liver ([1]; 24 h): 16.15 ± 3.65 %ID/g
- Biodistribution, Lung ([1]; 24 h): 5.56 ± 1.13 %ID/g
- Biodistribution, Muscle ([1]; 24 h): 0.68 ± 0.18 %ID/g
- Biodistribution, Spleen ([1]; 24 h): 4.14 ± 0.89 %ID/g
- Biodistribution, Stomach ([1]; 24 h): 1.38 ± 0.15 %ID/g
- Biodistribution, Blood ([1]; 48 h): 1.22 ± 0.36 %ID/g
- Biodistribution, Bone ([1]; 48 h): 0.96 ± 0.25 %ID/g
- Biodistribution, Brain ([1]; 48 h): 0.44 ± 0.13 %ID/g
- Biodistribution, Fat ([1]; 48 h): 0.51 ± 0.27 %ID/g
- Biodistribution, Heart ([1]; 48 h): 2.72 ± 0.39 %ID/g
- Biodistribution, Intestine ([1]; 48 h): 2.53 ± 0.54 %ID/g
- Biodistribution, Kidney ([1]; 48 h): 24.37 ± 1.88 %ID/g
- Biodistribution, Liver ([1]; 48 h): 13.48 ± 1.56 %ID/g
- Biodistribution, Lung ([1]; 48 h): 4.66 ± 0.50 %ID/g
- Biodistribution, Muscle ([1]; 48 h): 0.62 ± 0.12 %ID/g
- Biodistribution, Spleen ([1]; 48 h): 2.73 ± 0.28 %ID/g
- Biodistribution, Stomach ([1]; 48 h): 1.45 ± 0.65 %ID/g
- effective dose ([2]; ICRP tissue-weighting factors, OLINDA/EXM, extrapolated from mouse biodistribution): 3.67 × 10^−1 mSv/MBq
- estimated radiation-absorbed dose, kidneys ([2]; adult males, extrapolated from normal BALB/c mouse biodistribution): 8.10 mGy/MBq
- Biodistribution, Blood (PC3-PIP tumor xenograft; 2 h): 2.79 ± 1.90 %ID/g
- Biodistribution, Bone (PC3-PIP tumor xenograft; 2 h): 1.34 ± 0.23 %ID/g
- Biodistribution, Fat (PC3-PIP tumor xenograft; 2 h): 2.22 ± 1.07 %ID/g
- Biodistribution, Heart (PC3-PIP tumor xenograft; 2 h): 2.68 ± 0.45 %ID/g
- Biodistribution, Intestine (PC3-PIP tumor xenograft; 2 h): 5.19 ± 0.68 %ID/g
- Biodistribution, Kidney (PC3-PIP tumor xenograft; 2 h): 23.11 ± 4.11 %ID/g
- Biodistribution, Liver (PC3-PIP tumor xenograft; 2 h): 28.09 ± 3.73 %ID/g
- Biodistribution, Lung (PC3-PIP tumor xenograft; 2 h): 8.02 ± 1.49 %ID/g
- Biodistribution, Muscle (PC3-PIP tumor xenograft; 2 h): 0.78 ± 0.13 %ID/g
- Biodistribution, Spleen (PC3-PIP tumor xenograft; 2 h): 11.94 ± 3.50 %ID/g
- Biodistribution, Stomach (PC3-PIP tumor xenograft; 2 h): 2.35 ± 0.63 %ID/g
- Biodistribution, Tumor (PC3-PIP tumor xenograft; 2 h): 7.95 ± 1.58 %ID/g
- Biodistribution, Blood (PC3-PIP tumor xenograft; 6 h): 1.92 ± 0.53 %ID/g
- Biodistribution, Bone (PC3-PIP tumor xenograft; 6 h): 1.25 ± 0.20 %ID/g
- Biodistribution, Fat (PC3-PIP tumor xenograft; 6 h): 1.12 ± 0.79 %ID/g
- Biodistribution, Heart (PC3-PIP tumor xenograft; 6 h): 2.30 ± 0.30 %ID/g
- Biodistribution, Intestine (PC3-PIP tumor xenograft; 6 h): 4.55 ± 0.77 %ID/g
- Biodistribution, Kidney (PC3-PIP tumor xenograft; 6 h): 21.51 ± 3.13 %ID/g
- Biodistribution, Liver (PC3-PIP tumor xenograft; 6 h): 22.44 ± 2.56 %ID/g
- Biodistribution, Lung (PC3-PIP tumor xenograft; 6 h): 7.35 ± 3.45 %ID/g
- Biodistribution, Muscle (PC3-PIP tumor xenograft; 6 h): 0.40 ± 0.13 %ID/g
- Biodistribution, Spleen (PC3-PIP tumor xenograft; 6 h): 11.43 ± 5.81 %ID/g
- Biodistribution, Stomach (PC3-PIP tumor xenograft; 6 h): 2.18 ± 0.47 %ID/g
- Biodistribution, Tumor (PC3-PIP tumor xenograft; 6 h): 6.03 ± 3.20 %ID/g
- Biodistribution, Blood (PC3-PIP tumor xenograft; 24 h): 1.75 ± 0.41 %ID/g
- Biodistribution, Bone (PC3-PIP tumor xenograft; 24 h): 1.88 ± 0.35 %ID/g
- Biodistribution, Fat (PC3-PIP tumor xenograft; 24 h): 1.23 ± 0.52 %ID/g
- Biodistribution, Heart (PC3-PIP tumor xenograft; 24 h): 2.56 ± 0.49 %ID/g
- Biodistribution, Intestine (PC3-PIP tumor xenograft; 24 h): 4.17 ± 1.45 %ID/g
- Biodistribution, Kidney (PC3-PIP tumor xenograft; 24 h): 21.57 ± 6.53 %ID/g
- Biodistribution, Liver (PC3-PIP tumor xenograft; 24 h): 20.08 ± 4.40 %ID/g
- Biodistribution, Lung (PC3-PIP tumor xenograft; 24 h): 6.00 ± 0.85 %ID/g
- Biodistribution, Muscle (PC3-PIP tumor xenograft; 24 h): 0.69 ± 0.33 %ID/g
- Biodistribution, Spleen (PC3-PIP tumor xenograft; 24 h): 10.43 ± 1.98 %ID/g
- Biodistribution, Stomach (PC3-PIP tumor xenograft; 24 h): 2.66 ± 1.28 %ID/g
- Biodistribution, Tumor (PC3-PIP tumor xenograft; 24 h): 12.12 ± 1.17 %ID/g
- Biodistribution, Blood (PC3-PIP tumor xenograft; 48 h): 1.28 ± 0.24 %ID/g
- Biodistribution, Bone (PC3-PIP tumor xenograft; 48 h): 5.05 ± 6.09 %ID/g
- Biodistribution, Fat (PC3-PIP tumor xenograft; 48 h): 0.88 ± 0.42 %ID/g
- Biodistribution, Heart (PC3-PIP tumor xenograft; 48 h): 2.55 ± 0.12 %ID/g
- Biodistribution, Intestine (PC3-PIP tumor xenograft; 48 h): 2.56 ± 0.62 %ID/g
- Biodistribution, Kidney (PC3-PIP tumor xenograft; 48 h): 20.41 ± 3.03 %ID/g
- Biodistribution, Liver (PC3-PIP tumor xenograft; 48 h): 13.34 ± 0.55 %ID/g
- Biodistribution, Lung (PC3-PIP tumor xenograft; 48 h): 4.36 ± 0.62 %ID/g
- Biodistribution, Muscle (PC3-PIP tumor xenograft; 48 h): 0.98 ± 0.24 %ID/g
- Biodistribution, Spleen (PC3-PIP tumor xenograft; 48 h): 5.74 ± 1.34 %ID/g
- Biodistribution, Stomach (PC3-PIP tumor xenograft; 48 h): 1.72 ± 0.70 %ID/g
- Biodistribution, Tumor (PC3-PIP tumor xenograft; 48 h): 8.62 ± 0.44 %ID/g
Structure (SMILES): O=C([O-])CN1CCN(CC(=O)[O-])CCN(CC(=O)N[C@@H](CCCCNC(=O)CCCc2ccc(I)cc2)C(=O)NCCOCCOCC(=O)N(CCCC[C@H](NC(=O)N[C@@H](CCC(=O)O)C(=O)O)C(=O)O)CC(=O)O)CCN(CC(=O)[O-])CC1.[64Cu+2] [^64Cu-cudotadipep]
- cellular uptake (PC3-PIP (PSMA+) cells): 2.93 ± 0.06%
- cellular uptake (PC3-flu (PSMA−) cells): 0.44 ± 0.06%
